A word on the melting point: it is the temperature of the solid-liquid transition. Molecule `CN(C)CCNc1nc2cc(Cl)c(Cl)cc2nc1-c1ccccn1` registered a melting point of 95 to 97 °C.

In the case of `CC1(C)Oc2ccc(C#N)cc2[C@@H](NC2=C(C=O)C(=O)CC2)[C@@H]1O` (relative stereo), the melting point lay within 255 to 258 °C. For `Cn1c(C(F)(F)F)cc(=O)n(-c2c(F)cc(Cl)c3c2OC(C)(C)CC3)c1=O`, the melting point was in the range of 132 to 135 °C.

`CCCNC(=O)CSc1nc(Cl)cc(Nc2cccc(C)c2C)n1` gave a melting point of 146 to 148 °C. Under `NS(=O)(=O)c1ccsc1C(=O)OC1COC1` stands 158 to 160 °C; under `CSc1nc(Cl)c([N+](=O)[O-])c(N2CCS(=O)CC2)n1`, 176 to 178 °C; under `CCOC(=O)c1c(C)nc2c(cnn2CC)c1Cl`, 54 to 56 °C.

Turning to `Nc1ncc(-c2ccc(=O)[nH]n2)c(-c2cccs2)n1`, the melting point stood at 265 °C.

`COc1ccc(NC(=O)c2ccc(-c3ccc(-c4noc(CO)n4)cc3C)cc2)cc1N1CCN(C)CC1` yielded a melting point of 175 to 178 °C. With `CCCn1c(=O)c2c(nc(C=Cc3cc(OC)c(OC)cc3S(N)(=O)=O)n2C)n(CCC)c1=O`, the melting point lay in the range of 266 to 268 °C.

On to `Cc1ncoc1C(O)c1ccc(F)cc1` (configuration not stated), for which the melting point lay within 102 to 104 °C. `O=C(N[C@H]1CC[C@H](CCN2CCC(c3cccc4c3CCO4)CC2)CC1)c1ccc(F)cc1` yielded a melting point of 213 °C. Under `CCOC(=O)c1ccc(OCCOC)c(OC)c1` stands 57 to 60 °C; under `COc1cc(N)c(Cl)cc1C(=O)NCC1CCN(CCCCCNC(=O)c2nn(C)c3ccccc23)CC1`, 74 to 77 °C; under `FC1(N2CCOCC2)C=C(Cl)C=CC1NC(=S)C1C=CCCC1` (configuration not stated), 86 to 88 °C. The molecule `CC(C(=O)NCc1ccc(C(C)(C)C)cc1)c1ccc(NS(C)(=O)=O)c(C(=O)NCc2ccccc2)c1` (configuration not stated) yielded a melting point of 79 to 81 °C.

As for `COc1cc(Cl)nnc1NS(=O)(=O)c1ccc(Cl)s1`, the melting point lay in the range of 120 to 122 °C. In the case of `CC(C)(C)OC(=O)N1CCC(Nc2nc3ccccc3[nH]2)CC1`, the melting point is 249 °C.

On to `O=C(O)COc1cccc2c1CCc1sc(S(=O)(=O)C(c3ccc(F)cc3)c3ccc(F)cc3)nc1-2`, for which the melting point is 186 to 188 °C. In turn, `CCc1nc(N)nc(N)c1-c1ccc(NCc2ccc(Cl)c(Cl)c2)c([N+](=O)[O-])c1` displayed a melting point of 244 to 246 °C. `C/C(=C\c1ccc(C(=O)OCc2ccc([N+](=O)[O-])cc2)cc1)c1ccc2c(c1)C(C)(C)CCC2(C)C` registered a melting point of 183 to 184 °C. The figure for `CCCCNc1nc(C)c(C(=O)OCC)c(N)c1[N+](=O)[O-]` is 74 to 76 °C; for `CCCOc1ccc(C(=O)CC(=O)C(C)(C)C)cc1OC` it is 55.5 to 56.7 °C; for `CCCN(CCC)C(=O)C(CCC(=O)OC)NC(=O)C(C(=O)OC)=C1SC=CS1` (configuration not stated) it is 115 to 117 °C. The molecule `COC(=O)c1ccc(Cn2c(=O)c3cc(C(=O)NCc4ccc(OC)cc4)ccc3n(C)c2=O)cc1` displayed a melting point of 189 °C.

The molecule `CCCN(CCC)C1Cc2c(-c3ncco3)ccc3c2C(C1)CN3C(=O)c1ccccc1` (single isomer, unassigned; (-)) registered a melting point of 103 to 104 °C. In the case of `Cc1nc2ccccn2c(=O)c1CCN1CCC(C(=O)c2ccccc2)CC1`, the melting point worked out at 122 °C. For the molecule `COCC#Cc1cc(OC)c2ncc(C(=O)NCc3ccc(Cl)cc3)c(O)c2c1`, the melting point is 211 to 213 °C. Take `O=C(O)COC1c2ccccc2COc2ccc(/C=C/c3ccc4cc(F)c(F)cc4n3)cc21` (configuration not stated): the melting point was in the range of 206 to 208 °C.

Molecule `O=C(O)CNc1nccc(-n2cc(C3c4ccccc4C=Cc4ccccc43)c(=S)[nH]c2=O)n1` yielded a melting point of 208 °C. `CC(=O)Nc1cccc2ccc(OCC3CC3)cc12`: the melting point fell in the range of 154 to 155 °C. On to `Nc1nccn2nc(SCc3ccccc3)nc12`, for which the melting point fell in the range of 144 to 145 °C. Consider `COC(=O)c1ccccc1NC(=O)CN1CCN(C(=O)c2ccc(OC)cc2)CC1`, for which the melting point lay within 168 to 169 °C. Take `COc1cccc(CN2CCC(NC(=O)c3cnc4c(OC)cccc4c3Nc3ccc(C(=O)NC4CCN(Cc5ccccc5)CC4)cc3)CC2)c1`: the melting point lay in the range of 135 to 142 °C. In turn, `CCCCOC(=O)c1cn2ccnc2s1` registered a melting point of 84 to 86 °C.

Turning to `CN(C)CCNS(=O)(=O)c1cccc(NC(=O)c2cnn3c(C(F)F)cc(-c4ccc(C(F)(F)F)cc4)nc23)c1`, the melting point was found to be 184 °C. In turn, `Cc1ccnc(C(O)c2cc(F)ccc2F)c1` (configuration not stated) gave a melting point of 105 to 106 °C.

Molecule `Nc1nc(=O)n(C(=O)NC2CCCC2)cc1F` had a melting point of 294 to 297 °C.

The molecule `CCCCCCCCCCCC#Cc1cnccc1C=C(C(=O)O)C(=O)O` had a melting point of 175 to 177 °C. The molecule `O=C(O)C1CCCc2c(-c3ccc(C(F)(F)F)cc3)noc2C1` (configuration not stated) showed a melting point of 222 to 225 °C. In turn, `CSc1nccc(-c2ccccc2)n1` displayed a melting point of 87 to 89 °C. As for `CCCCCc1cc(O)c2c3c(c(=O)oc2c1)SC(C)C3` (configuration not stated), the melting point was in the range of 188 to 190 °C. In the case of `COc1cc([N+](=O)[O-])c2c(c1OC)C(=O)CC2`, the melting point fell in the range of 202 to 204 °C. Turning to `CN1CCN(c2ccc(-c3cnc4c(c3)N(Cc3cc(F)ccc3F)CCN4)cn2)CC1`, the melting point lay in the range of 192 to 193 °C. On to `C[C@H]1c2onc(-c3ccc(Cl)cc3)c2CCC[C@H]1C(=O)O` (relative stereo), for which the melting point lay within 149 to 150 °C.

As for `N#Cc1nn(-c2c(Cl)cc(OC(F)(F)F)cc2Cl)cc1C(Cl)=C(Cl)Br`, the melting point is 143 to 144 °C. For the molecule `CCOC(=O)Cc1cc(C)c(C(=O)c2ccc(F)cc2)n1C`, the melting point lay in the range of 84 to 86 °C. The figure for `CCOC(=O)c1c(Cl)nc2cc(F)c(F)cc2c1CCl` is 264 °C. On to `CC(=O)C#CC1CCC2C3CCC4CC(O)CCC4(C)C3CCC12C` (configuration not stated), for which the melting point lay in the range of 148 to 150 °C. Take `N#CCCN1CCC(c2[nH]cc3cc(F)ccc23)CC1`: the melting point lay within 100 to 101 °C.

`COc1cc(OC)nc(Nc2ncccc2C(=O)OCc2ccccc2)n1` returned a melting point of 128 to 131 °C. Under `O=c1oc2c(O)cccc2c(OCCN2CCOCC2)c1-c1ccccc1` stands 190 to 191 °C; under `CCCCCCCOc1ccc(C(C)O)cc1` (single isomer, unassigned; (+)), 36.7 °C.

Regarding `O=C(O)C=CC=Cc1cccc2cncn12`, the melting point lay in the range of 243 to 245 °C. For `CON=C(N)Nc1nccc(C)n1`, the melting point is 152 °C. `O=C(Oc1ccccc1)N1CCC2(CC1)SC(c1ccccc1F)c1ccccc12` (configuration not stated) displayed a melting point of 122 to 123 °C.

Molecule `O=C1C=C(c2c[nH]c3ccc(OCc4ccccc4)cc23)C(=O)N1` yielded a melting point of 211 °C.

The molecule `CCOc1ccc2c(C)c(CCCl)c(=O)oc2c1OCC` registered a melting point of 89 to 90 °C. In turn, `CCNC(=O)c1c(NC(=O)c2cc(C(F)(F)F)nn2-c2ncccc2Cl)c(C)cc2nc(C)ccc12` had a melting point of more than 230 °C. `COc1ccccc1Oc1c(NS(=O)(=O)c2c(C)noc2C)nc(N2CCOCC2)nc1OCCO` displayed a melting point of 144 to 147 °C. `Cc1ccc(-c2ccc3c(c2)C=C(C(=O)Nc2ccc(CSC4CCCCC4)cc2)CCO3)cc1`: the melting point is 161 to 162 °C. Molecule `Cc1nnc(NC(C)C)s1` showed a melting point of 145 °C.

`Nc1nc(N)c(CCNc2ccc(C(=O)N[C@@H](CCC(=O)O)C(=O)O)cc2)c(=O)[nH]1` registered a melting point of 180 to 185 °C. `Cc1ccc(-c2nn(Cc3ccccc3)c(N)c2C#N)cc1` showed a melting point of 162 to 163 °C.

The molecule `CN1CCN(c2cccc3c2C[C@H](NC(=O)c2ccc(C(=O)N4CCOCC4)cc2)CC3)CC1` gave a melting point of 124 to 127 °C. In turn, `Nc1nc(O)c2c(n1)NCC(CCCCCC(=O)N[C@@H](CCC(=O)O)C(=O)O)C2` (some centres not stated) registered a melting point of 144 °C. `CCOC(=O)Cc1ccc2c(c1)C(O)C(NC(=O)OC)CC2` (configuration not stated) registered a melting point of 99 to 100 °C. With `FC(F)(F)c1cccc(-c2ccnc(S)n2)c1`, the melting point is 200 to 205 °C. The figure for `CCNC(=O)c1c([Si](C)(C)C)ccc(/C=C/[N+](=O)[O-])c1Cl` is 104 to 106 °C; for `CCOC(=O)C1=C(COCc2cccnc2)NC(COCc2cccnc2)=C(C(=O)OCC)C1c1cccc([N+](=O)[O-])c1` it is 169 to 171 °C. `C=CCOc1ccc2c(c1)CCNC2=O` showed a melting point of 105 to 107 °C. With `O=C(Nc1cccnn1)N1CCN(c2cc(-c3ccc(F)cc3)ncn2)CC1`, the melting point was in the range of 254 to 255 °C.

`N#Cc1cc(C(=O)Nc2ccc(F)cn2)nc(C(F)(F)F)c1` had a melting point of 186 °C. `O=C(CN1CCN(c2ccc(F)cc2)CC1)CN1CCN(c2ccc(F)cc2)CC1` returned a melting point of 106 to 107 °C. Take `CNC(=O)NCCCCc1cccc(OC)c1`: the melting point lay in the range of 74 to 75.5 °C.

With `Cc1c(NC(=O)C(CSC(=O)Cc2cccs2)Cc2ccccc2)cccc1C(=O)O` (configuration not stated), the melting point fell in the range of 134 to 137 °C. The figure for `O=C(CC(=O)c1ccccc1)C(=O)CC(=O)c1ccccc1` is 178 to 180 °C; for `N#CSc1nc(Cl)ncc1F` it is 103 to 104 °C. In the case of `O=C(O)c1cccc(-c2ccc3c(c2)C(Oc2ccc(Cl)cc2Cl)CC3)c1` (configuration not stated), the melting point lay within 173 to 174 °C. On to `C(=CCN(Cc1ccccc1)Cc1ccccc1)CN(Cc1ccccc1)Cc1ccccc1`, for which the melting point lay in the range of 114 to 115 °C. Turning to `COC(=O)/C(=N/NC(N)=O)c1ccc(OCCOc2ccc3ccccc3c2)cc1`, the melting point was in the range of 132 to 134 °C. The figure for `O=C(O)c1cnn(-c2cccc(C(F)(F)F)c2)c1` is 145 to 148 °C; for `CC(C)c1nn(-c2nc3ccccc3s2)c(-c2ccc(F)cc2)c1C=CC1CC(O)CC(=O)O1` (configuration not stated) it is 168 to 170 °C; for `CCC(=O)Nc1ccc(C(=O)NCCN(CC)CC)c(OC)c1` it is 137 °C. Molecule `CCCOC(Cc1ccc(OCCc2nc(-c3ccccc3)oc2C)c2ccsc12)C(=O)O` (configuration not stated) registered a melting point of 106 to 109 °C. The figure for `OCc1cccc(-c2ccc3nnn(Cc4ccc5ncccc5c4)c3n2)c1` is 191 to 193 °C; for `N#CC(Cl)=C(Cl)SC(Cl)=C(Cl)C#N` it is 87 °C.

The record behind these values is a melting point compilation (Tetko et al.; mined from patent text by program, amines drawn as free bases though some values may be those of a salt).
